Source: PubChem BioAssay AID1963874 (Molecular Pharmacology Branch, DTP, NCI, 2024)

Tested on: 253994-281-T-J1-PDC KRAS-mutant spheroids with HUVEC/MSC, viability
Assay: Anticancer human tumor 253994-281-T-J1-PDC patient-derived colorectal carcinoma cell line growth inhibition [KRAS2]
Conditions: for IC50: curve of first compound; for viability, T/C: stronger effect = lower value
Method in brief: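 KRAS-mutant tumor cells were grown as spheroids with HUVEC endothelial cells and human MSCs as stroma. Targeted agents were tested alone and with KRAS pathway inhibitors. Doses started at or near clinical Cmax, or 10 microM, descending half-log.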

[1] = second compound 0.1 µM, first compound 0.000316 µM
[2] = second compound 0.1 µM, first compound 0.001 µM
[3] = second compound 0.1 µM, first compound 0.00316 µM
[4] = second compound 0.1 µM, first compound 0.01 µM
[5] = second compound 0.1 µM, first compound 0.0316 µM
[6] = second compound 0.1 µM, first compound 0.1 µM
[7] = second compound 0.316 µM, first compound 0.000316 µM
[8] = second compound 0.316 µM, first compound 0.001 µM
[9] = second compound 0.316 µM, first compound 0.00316 µM
[10] = second compound 0.316 µM, first compound 0.01 µM
[11] = second compound 0.316 µM, first compound 0.0316 µM
[12] = second compound 0.316 µM, first compound 0.1 µM
[13] = second compound 1 µM, first compound 0.000316 µM
[14] = second compound 1 µM, first compound 0.001 µM
[15] = second compound 1 µM, first compound 0.00316 µM
[16] = second compound 1 µM, first compound 0.01 µM
[17] = second compound 1 µM, first compound 0.0316 µM
[18] = second compound 1 µM, first compound 0.1 µM
[19] = second compound 3.16 µM, first compound 0.000316 µM
[20] = second compound 3.16 µM, first compound 0.001 µM
[21] = second compound 3.16 µM, first compound 0.00316 µM
[22] = second compound 3.16 µM, first compound 0.01 µM
[23] = second compound 3.16 µM, first compound 0.0316 µM
[24] = second compound 3.16 µM, first compound 0.1 µM
[25] = second compound 10 µM, first compound 0.000316 µM
[26] = second compound 10 µM, first compound 0.001 µM
[27] = second compound 10 µM, first compound 0.00316 µM
[28] = second compound 10 µM, first compound 0.01 µM
[29] = second compound 10 µM, first compound 0.0316 µM
[30] = second compound 10 µM, first compound 0.1 µM
[31] = second compound 0.1 µM, first compound 0.316 µM
[32] = second compound 0.1 µM, first compound 1 µM
[33] = second compound 0.1 µM, first compound 3.16 µM
[34] = second compound 0.1 µM, first compound 10 µM
[35] = second compound 0.316 µM, first compound 0.316 µM
[36] = second compound 0.316 µM, first compound 1 µM
[37] = second compound 0.316 µM, first compound 3.16 µM
[38] = second compound 0.316 µM, first compound 10 µM
[39] = second compound 1 µM, first compound 0.316 µM
[40] = second compound 1 µM, first compound 1 µM
[41] = second compound 1 µM, first compound 3.16 µM
[42] = second compound 1 µM, first compound 10 µM
[43] = second compound 3.16 µM, first compound 0.316 µM
[44] = second compound 3.16 µM, first compound 1 µM
[45] = second compound 3.16 µM, first compound 3.16 µM
[46] = second compound 3.16 µM, first compound 10 µM
[47] = second compound 10 µM, first compound 0.316 µM
[48] = second compound 10 µM, first compound 1 µM
[49] = second compound 10 µM, first compound 3.16 µM
[50] = second compound 10 µM, first compound 10 µM
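Note: spheroids exposed to agents for seven days before readout.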
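Throughout, for viability, T/C: percent of DMSO vehicle control viability.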

SMILES	IC50 (second compound 0.1 µM)	IC50 (second compound 0.316 µM)	IC50 (second compound 1 µM)	IC50 (second compound 3.16 µM)	IC50 (second compound 10 µM)	viability, T/C [5]	viability, T/C [6]	viability, T/C [11]	viability, T/C [12]	viability, T/C [17]	viability, T/C [18]	viability, T/C [23]	viability, T/C [24]	viability, T/C [29]	viability, T/C [30]	viability, T/C [31]	viability, T/C [32]	viability, T/C [33]	viability, T/C [35]	viability, T/C [36]	also measured
Cn1ncnc1[C@H]1c2n[nH]c(=O)c3cc(F)cc(c23)N[C@@H]1c1ccc(F)cc1 + CC1OCC2(CCN(c3cnc(Sc4ccnc(N)c4Cl)c(N)n3)CC2)C1N	> 100 nM	> 100 nM	> 100 nM	> 100 nM	< 0.316 nM	103%	94.4%	87.2%	76.8%	74.8%	80.8%	63.6%	55.5%	44.2%	32.3%						viability, T/C [1]: 94.9%; viability, T/C [2]: 94.9%; viability, T/C [3]: 99.9%; viability, T/C [4]: 109%; viability, T/C [7]: 95.5%; viability, T/C [8]: 83.6%; viability, T/C [9]: 98.6%; viability, T/C [10]: 85.5%; viability, T/C [13]: 85.7%; viability, T/C [14]: 86%; viability, T/C [15]: 93.2%; viability, T/C [16]: 73.1%; viability, T/C [19]: 67.1%; viability, T/C [20]: 58.3%; viability, T/C [21]: 71.4%; viability, T/C [22]: 66%; viability, T/C [25]: 46.8%; viability, T/C [26]: 47.1%; viability, T/C [27]: 33.4%; viability, T/C [28]: 40.1%
CC(C)n1nc(-c2ccc3oc(N)nc3c2)c2c(N)ncnc21 + CNCc1ccccc1-c1csc(C(C)Nc2nc(C)nc3cc(OC)c(OC)cc23)c1	> 100 nM	> 100 nM	> 100 nM	0.316 nM	< 0.316 nM	79.7%	50.8%	78.1%	57%	73.3%	51%	42.3%	28.2%	0.13%	0.18%						viability, T/C [1]: 96.7%; viability, T/C [2]: 86.8%; viability, T/C [3]: 74.5%; viability, T/C [4]: 75.8%; viability, T/C [7]: 91%; viability, T/C [8]: 87.5%; viability, T/C [9]: 82.7%; viability, T/C [10]: 73.2%; viability, T/C [13]: 93.3%; viability, T/C [14]: 78%; viability, T/C [15]: 79.3%; viability, T/C [16]: 76.8%; viability, T/C [19]: 37.9%; viability, T/C [20]: 45.2%; viability, T/C [21]: 56.9%; viability, T/C [22]: 9.64%; viability, T/C [25]: 0.12%; viability, T/C [26]: 0.13%; viability, T/C [27]: 0.13%; viability, T/C [28]: 0.11%
Cn1nccc1Nc1nccc(-c2cc3c(s2)C(C)(C)N(CCN2CCOCC2)C3=O)n1 + CNCc1ccccc1-c1csc(C(C)Nc2nc(C)nc3cc(OC)c(OC)cc23)c1	2140 nM	1520 nM	863 nM	< 31.6 nM	< 31.6 nM	97.5%	102%	106%	89.2%	87.7%	73.2%	44.4%	46.3%	0.25%	0.16%	87.6%	74.6%	37.1%	84%	60.7%	viability, T/C [34]: 23.8%; viability, T/C [37]: 31.8%; viability, T/C [38]: 19.4%; viability, T/C [39]: 67.9%; viability, T/C [40]: 49.8%; viability, T/C [41]: 24%; viability, T/C [42]: 10%; viability, T/C [43]: 29.3%; viability, T/C [44]: 0.46%; viability, T/C [45]: 0.39%; viability, T/C [46]: 0.26%; viability, T/C [47]: 0.15%; viability, T/C [48]: 0.14%; viability, T/C [49]: 0.39%; viability, T/C [50]: 0.2%
CC(=O)OC12COC1CC(O)C1(C)C(=O)C(O)C3=C(C)C(OC(=O)C(O)C(NC(=O)OC(C)(C)C)c4ccccc4)CC(O)(C(OC(=O)c4ccccc4)C21)C3(C)C (stereo not given) + COc1cc2nc(C)nc(NC(C)c3cc(N)cc(C(F)(F)F)c3)c2cc1OC1CCOC1	16.7 nM	< 10 nM	< 10 nM	< 10 nM	< 10 nM	35.7%	26.1%	26.9%	21.4%	41.4%	21.6%	21.6%	17.4%	22.4%	19.2%	20.6%	22.6%	19.6%	19.7%	18.8%	viability, T/C [4]: 61.3%; viability, T/C [10]: 46.2%; viability, T/C [37]: 19.1%; viability, T/C [16]: 35.9%; viability, T/C [39]: 19.9%; viability, T/C [40]: 19.7%; viability, T/C [41]: 22.8%; viability, T/C [22]: 25.8%; viability, T/C [43]: 18%; viability, T/C [44]: 20.1%; viability, T/C [45]: 20.6%; viability, T/C [28]: 20.1%; viability, T/C [47]: 23.3%; viability, T/C [48]: 20.2%; viability, T/C [49]: 25.4%
O=C(c1cc(Cc2n[nH]c(=O)c3ccccc23)ccc1F)N1CCN(C(=O)C2CC2)CC1 + C=CC(=O)N1CCN(c2nc(=O)n(-c3c(C)ccnc3C(C)C)c3nc(-c4c(O)cccc4F)c(F)cc23)C(C)C1	> 10000 nM	> 10000 nM	> 10000 nM	> 10000 nM	> 10000 nM	101%	93%	95.7%	105%	88.6%	91%	107%	97.8%	117%	105%	102%	94.9%	95%	84.8%	101%	viability, T/C [34]: 82.2%; viability, T/C [37]: 92.4%; viability, T/C [38]: 90.3%; viability, T/C [39]: 83%; viability, T/C [40]: 97.2%; viability, T/C [41]: 103%; viability, T/C [42]: 96.7%; viability, T/C [43]: 113%; viability, T/C [44]: 98%; viability, T/C [45]: 97.8%; viability, T/C [46]: 91.8%; viability, T/C [47]: 89.4%; viability, T/C [48]: 89.5%; viability, T/C [49]: 112%; viability, T/C [50]: 93.5%
COC(=O)c1ccc2c(C(=Nc3ccc(N(C)C(=O)CN4CCN(C)CC4)cc3)c3ccccc3)c(O)[nH]c2c1 + CNCc1ccccc1-c1csc(C(C)Nc2nc(C)nc3cc(OC)c(OC)cc23)c1	6670 nM	4120 nM	4520 nM	< 31.6 nM	< 31.6 nM	90.3%	97.4%	99.1%	74.1%	82.6%	75%	20.7%	23.6%	0.14%	0.16%	73.2%	89.3%	77%	80.8%	83.8%	viability, T/C [34]: 35.2%; viability, T/C [37]: 61.7%; viability, T/C [38]: 10.7%; viability, T/C [39]: 77.3%; viability, T/C [40]: 70.8%; viability, T/C [41]: 72.3%; viability, T/C [42]: 0.33%; viability, T/C [43]: 3.7%; viability, T/C [44]: 1.12%; viability, T/C [45]: 0.36%; viability, T/C [46]: 0.17%; viability, T/C [47]: 0.15%; viability, T/C [48]: 0.22%; viability, T/C [49]: 0.12%; viability, T/C [50]: 0.17%
